Reference: publication PMC11859092 (Pharmaceutics, 2025)
Values after ≈ are worked out from the molar mass of the structure shown.

Experiments:
ZIKV = test: Virus yield inhibition assay (PFU); format: cell-based, ZIKV INEVH-116141 strain; details: Zika virus, m.o.i. 0.1, 48 h p.i.
YFV = test: microbe, parasite or virus in culture; format: cell-based, YFV vaccine strain YF-17D; details: Yellow fever virus
[1] = EFV solubilization in Soluplus nanomicelle dispersions (apparent aqueous solubility, RP-HPLC); details: distilled water, 25 °C
[2] = In vitro cytotoxicity test (MTT); format: cell-based
Method: Thereafter, cell viability was determined by the 3-(4,5-dimethylthiazol-2-yl)-2,5-diphenyl tetrazolium bromide (MTT, Sigma-Aldrich, St. Louis, MO, USA) method at a final concentration 0.5 mg/mL. After 2 h of incubation at 37 °C, the supernatants were removed, ethanol was added to each well to solubilize the formazan crystals and absorbance was measured in a multi-mode microplate reader (FLUOstar® Omega, Labtech, Eschelbronn, Germany) at 595 nm. […] All determinations were performed in triplicate.

[3] = cited from earlier work
[4] = cited from earlier work; remark: listed apart in the source
DENV-2 = test: microbe, parasite or virus in culture; format: cell-based, DENV type-2 (DENV-2) strain NGC; details: Dengue virus

Q: With O=C1Nc2ccc(Cl)cc2[C@@](C#CC2CC2)(C(F)(F)F)O1 [EFV, Efavirenz] as the compound, how does the EC50 (ZIKV; ZIKV in A549 cells) read?
A: Its EC50 is 4.98 µg/mL (≈ 15.8 µM).

Q: What about the EC50 (ZIKV; ZIKV in Vero cells) of the same compound?
A: The EC50 was 2.41 µg/mL (≈ 7.63 µM).

Q: What about the EC50 (YFV; A549, 48 h) of the same compound?
A: The EC50 was 12.6 µg/mL (≈ 39.9 µM).

Q: What about the EC50 (YFV; Vero, 48 h) of the same compound?
A: The EC50 was 1.48 µg/mL (≈ 4.69 µM).

Q: What about the “PM molar partition coefficient (micelle/water)” value ([1]; Soluplus 1% w/v) of the same compound?
A: Its value is 5368.

Q: What about the “P partition coefficient (micelle/water)” value ([1]; Soluplus 3% w/v) of the same compound?
A: Its value is 1327.

Q: What about the “PM molar partition coefficient (micelle/water)” value ([1]; Soluplus 3% w/v) of the same compound?
A: The value was 5220.

Q: What about the “P partition coefficient (micelle/water)” value ([1]; Soluplus 5% w/v) of the same compound?
A: Its value is 2247.

Q: What about the “PM molar partition coefficient (micelle/water)” value ([1]; Soluplus 5% w/v) of the same compound?
A: Its value is 5303.

Q: And the “P partition coefficient (micelle/water)” value ([1]; Soluplus 7% w/v)?
A: Its value is 3667.

Q: And the “PM molar partition coefficient (micelle/water)” value ([1]; Soluplus 7% w/v)?
A: The value was 6181.

Q: What about the “P partition coefficient (micelle/water)” value ([1]; Soluplus 10% w/v) of the same compound?
A: Its value is 4802.

Q: What about the “PM molar partition coefficient (micelle/water)” value ([1]; Soluplus 10% w/v) of the same compound?
A: Its value is 5666.

Q: What about the CC50 at 48 h ([2]; African green monkey, Vero) of the same compound?
A: The CC50 at 48 h was 56.8 µg/mL (≈ 180 µM).

Q: And the CC50 at 48 h ([2]; human, A549, 48 h)?
A: Its CC50 at 48 h is 126 µg/mL (≈ 399 µM).

Q: What about the “biopharmaceutical classification system (BCS) class” value [3] of the same compound?
A: The value was “class II”.

Q: What about the intrinsic aqueous solubility [3] of the same compound?
A: Its intrinsic aqueous solubility is 4 µg/mL.

Q: And the Cmax in humans [4]?
A: The Cmax in humans was 4000 ng/mL.

Q: And the EC50 (DENV-2; DENV2, A549, 48 h)?
A: Its EC50 is 2.69 µg/mL (≈ 8.52 µM).

Q: And the EC50 (DENV-2; DENV2, Vero, 48 h)?
A: Its EC50 is 8.17 µg/mL (≈ 25.9 µM).
